# Data from patent US11065294B2, “Composition including oriental medicine to treat neoplastic disease” (COMPREHENSIVE AND INTEGRATIVE MEDICINE INSTITUTE, priority 2013, dated 2021).
# “And” between values parts separate entries of the source, which are not always exact repeats. Equal entries are not always repeated. Structures can show the parent of a compound that is named as a salt. Marks after values point to notes of the source that are not given here.
# Key:
# NCI-H520 cell xenograft = test: NCI-H520 xenograft nude mice, 35 days oral: gefitinib 120 mg/kg single, bojungikgi-tang 400 mg/kg single, or co-administered within 5 minutes; assay type: in vivo, Balb/c Slc nu/nu mice; settings: co-adm BJIKT 100/200/400 mg/kg in order
# Experimental: A total of 73 nude mice were purchased, and NCI-H520 cells were xenografted into a subcutaneous region of a right hip each of 67 mice. 14 days after the grafting, the xenografted mice having a tumor volume of 100 mm^3 or more were selected, and divided into seven groups of 6 mice each to be used in the experiment as listed in Table 16. Separately, 6 mice were prepared as the vehicle control.
# Then, the NCI-H520 cells were cultured to a density of 1.0×10^8 cells/ml to prepare a tumor cell suspension, and 0.2 mL (2×10^7 cells/head) of the NCI-H520 tumor cell suspension was injected into subcutaneous regions of right back buttocks of the mice to form a solid tumor mass.
# in vivo [1] = settings: male, SD, rat, plasma, po, 50 mg/kg
# in vivo [2] = settings: male, SD, rat, plasma, po, 50 mg/kg; for AUC(0-inf): AUC0-inf of gefitinib; for AUC(0-t): AUC0-t of gefitinib; for Cmax: Cmax of gefitinib; for MRT inf: MRTinf of gefitinib; for half-life: t1/2 of gefitinib
# in vivo [3] = settings: male, SD, rat, plasma
# MCF-7 cell xenograft = test: MCF-7 xenograft nude mice, 35 days oral: tamoxifen 20 mg/kg single, JEKHT 500 mg/kg single, or co-administered within 5 minutes; tumor, immune and cachexia readouts; assay type: in vivo, Balb/c Slc nu/nu mice
# Excerpt: In Example 3, as laboratory animals, Balb/c Slc nu/nu mice (5-week-old females, SLC, Shizuoka, Japan) were used. Seventy three nude mice were purchased, and sixty seven xenografted mice having a tumor volume of 50 mm^3 or more 14 days after MCF-7 cells were xenografted into subcutaneous parts of a right hip of each mouse were selected, and divided into groups of seven mice each.
# The xenografted MCF-7 cells were maintained by sub-culturing the MCF-7 cells (American Type Culture Collection Center, VA, USA) using 10% fetal bovine serum (FBS)-added RPMI 1640 (Gibco, Grand Island, N.Y., USA) media in a 5% C02 incubator at 37° C., and a solid tumor mass was formed by preparing a tumor cell suspension to have a cell concentration of 1.0×10^8 cell/ml, and grafting 0.2 ml (2×10^7 cell/mouse) of the MCF-7 tumor cell suspension on a subcutaneous part of a right hip of each mouse.
# in vivo [4] = settings: male, SD, rat, plasma; for Cmax / MRT inf / Tmax / half-life: oral; for Cmax: Blood Cmax of tamoxifen; for MRT inf: Blood MRTinf of tamoxifen; for Tmax: Blood Tmax of tamoxifen; for half-life: Blood t1/2 of tamoxifen; for AUC(0-inf) / AUC(0-t): po, 50 mg/kg; for AUC(0-inf): Blood tamoxifen AUC0-inf; for AUC(0-t): Blood tamoxifen AUC0-t
# [5] = mouse, in vivo
# HepG2 cells [6] = test: HepG2 cell viability, MTT method (BJIKT, sorafenib); assay type: cell-based; settings: Homo sapiens
# HepG2 cells [7] = test: HepG2 cell viability, MTT method (YMJHT, sorafenib); assay type: cell-based; settings: Homo sapiens
# [8] = sorafenib 100 mg/kg single
# [9] = co-adm JEKHT 125/250/500 mg/kg in order
# [10] = co-adm JEKHT dose given in table
# [11] = submandibular lymph node, JEKHT dose = table row
# [12] = tumor mass, JEKHT dose = table row
structure (smiles),measurement,setting,value
COc1cc2ncnc(Nc3ccc(F)c(Cl)c3)c2cc1OCCCN1CCOCC1 [Gefitinib],"Absolute periovarian fat pad weight, change vs TB control",NCI-H520 cell xenograft,−3.06%
same,"Absolute spleen weight, change vs TB control",NCI-H520 cell xenograft,14.01%
same,"Absolute submandibular lymph node weight, change vs TB control",NCI-H520 cell xenograft,50.00%
same,Absolute tumor weight change,NCI-H520 cell xenograft,−39.14%
same,"Blood IFN-γ content, change vs TB control",NCI-H520 cell xenograft,6.77%
same,"Blood IL-6 content, change vs TB control",NCI-H520 cell xenograft,−12.33%
same,"Body weight gain, change vs tumor-bearing control",NCI-H520 cell xenograft,68.23%
same,"COX-2 immunoreactive cells in tumor tissue, change vs TB control",NCI-H520 cell xenograft,−42.48%
same,"Caspase-3 immunoreactive cells in tumor tissue, change vs TB control",NCI-H520 cell xenograft,168.67%
same,"Diameter of splenic white pulp, change vs TB control",NCI-H520 cell xenograft,6.51%
same,"Follicles in submandibular lymph node cortex, change vs TB control",NCI-H520 cell xenograft,15.00%
same,"Mean white adipocyte diameter, change vs TB control",NCI-H520 cell xenograft,−7.01%
same,"Number of splenic white pulps, change vs TB control",NCI-H520 cell xenograft,22.22%
same,"PARP immunoreactive cells in tumor tissue, change vs TB control",NCI-H520 cell xenograft,125.47%
same,"Percentage of apoptotic cells in tumor tissue, change vs TB control",NCI-H520 cell xenograft,131.78%
same,"Percentage of tumor cells in tumor tissue, change vs TB control",NCI-H520 cell xenograft,−36.78%
same,"Periovarian fat pad thickness, change vs TB control",NCI-H520 cell xenograft,2.11%
same,"Spleen IL-1β content, change vs TB control",NCI-H520 cell xenograft,8.36%
same,"Spleen IL-10 content, change vs TB control",NCI-H520 cell xenograft,5.16%
same,"Spleen TNF-α content, change vs TB control",NCI-H520 cell xenograft,6.73%
same,"Splenic NK cell activity, change vs TB control",NCI-H520 cell xenograft,4.93%
same,"Submandibular lymph node cortex thickness, change vs TB control",NCI-H520 cell xenograft,16.19%
same,"TNF-α immunoreactive cells in tumor tissue, change vs TB control",NCI-H520 cell xenograft,12.63%
same,"Total spleen thickness, change vs TB control",NCI-H520 cell xenograft,−6.99%
same,"Total submandibular lymph node thickness, change vs TB control",NCI-H520 cell xenograft,7.42%
same,"Tumor volume variation, change vs tumor-bearing control",NCI-H520 cell xenograft,−55.42%
same,"iNOS immunoreactive cells in tumor tissue, change vs TB control",NCI-H520 cell xenograft,9.02%
same,AUC(0-inf),in vivo [1],16400 ± 9310 ng·h/mL
same,AUC(0-t),in vivo [1],14600 ± 9450 ng·h/mL
same,Cmax,in vivo [1],2160 ± 760 ng/mL
same,half-life,in vivo [1],155 ± 45.6 min
same,AUC(0-inf),in vivo [2]; 9th administration,16900 ± 4140 ng·h/mL
same,AUC(0-inf),in vivo [2]; first gefitinib administration,20200 ± 4610 ng·h/mL
same,AUC(0-t),in vivo [2]; 9th administration,13500 ± 2780 ng·h/mL
same,AUC(0-t),in vivo [2]; first gefitinib administration,15400 ± 2240 ng·h/mL
same,Cmax,in vivo [2]; 9th administration,3120 ± 770 ng/mL
same,Cmax,in vivo [2]; first gefitinib administration,3010 ± 480 ng/mL
same,MRT inf,in vivo [2]; 9th administration,5.71 ± 1.04 h
same,MRT inf,in vivo [2]; first gefitinib administration,5.94 ± 1.36 h
same,half-life,in vivo [2]; 9th administration,143 ± 52.8 min
same,half-life,in vivo [2]; first gefitinib administration,169 ± 55.2 min
"CC/C(=C(\c1ccccc1)c1ccc(OCCN(C)C)cc1)c1ccccc1 [Tamoxifen, Tamoxifen citrate]",AUC(0-inf),in vivo [3]; oral,6860 ± 2920 ng·h/mL
same,AUC(0-t),in vivo [3]; oral,5270 ± 1790 ng·h/mL
same,Cmax,in vivo [3]; oral,364 ± 122 ng/mL
same,MRT inf,in vivo [3]; oral,14.9 ± 6.29 h
same,Tmax,in vivo [3]; oral,5.6 ± 2.19 h
same,half-life,"in vivo [3]; po, 50 mg/kg",574 ± 250 min
same,Periovarian fat pad total thickness,MCF-7 cell xenograft; JEKHT dose = table row,0.28 ± 0.10^a mm/central regions
same,Spleen total thickness,MCF-7 cell xenograft; JEKHT dose = table row,1.15 ± 0.13^a mm/central regions
same,Spleen white pulp diameters,MCF-7 cell xenograft; JEKHT dose = table row,298.11 ± 61.88^a μm/white pulp
same,Spleen white pulp numbers,MCF-7 cell xenograft; JEKHT dose = table row,4.14 ± 1.07^a /mm^2
same,Submandibular lymph node total thickness,MCF-7 cell xenograft; JEKHT dose = table row,487.38 ± 83.96^a μm/central regions
same,"Blood IFN-γ content, change vs tumor-bearing control",MCF-7 cell xenograft; [9],−14.77%
same,"Blood IL-6 content, change vs tumor-bearing control",MCF-7 cell xenograft; [9],21.68%
same,"Body weight gain, change vs tumor-bearing control",MCF-7 cell xenograft; [9],−11162.72%
same,"Peritoneal NK cell activity, change vs tumor-bearing control",MCF-7 cell xenograft; [9],−26.39%
same,"Splenic IL-1β content, change vs tumor-bearing control",MCF-7 cell xenograft; [9],−10.82%
same,"Splenic IL-10 content, change vs tumor-bearing control",MCF-7 cell xenograft; [9],−33.33%
same,"Splenic NK cell activity, change vs tumor-bearing control",MCF-7 cell xenograft; [9],−12.73%
same,"Splenic TNF-α content, change vs tumor-bearing control",MCF-7 cell xenograft; [9],−23.94%
same,"Tumor volume variation, change vs tumor-bearing control",MCF-7 cell xenograft; [9],−66.73%
same,Periovarian fat pad absolute weight,MCF-7 cell xenograft; [10],0.009 ± 0.003 g
same,Spleen absolute weight,MCF-7 cell xenograft; [10],0.049 ± 0.009 g
same,Submandibular lymph node absolute weight,MCF-7 cell xenograft; [10],0.002 ± 0.001 g
same,Tumor mass absolute weight,MCF-7 cell xenograft; [10],0.047 ± 0.010 g
same,Tumor volume Changes [B − A],MCF-7 cell xenograft; [10],125.92 ± 40.49^a mm^3
same,"Tumor volume, Sacrifice [B]",MCF-7 cell xenograft; [10],184.85 ± 37.69^a mm^3
same,White adipocyte diameters,"MCF-7 cell xenograft; periovarian fat pad, JEKHT dose = table row",19.89 ± 5.09^a μm
same,Cortex lymphoid cell follicle numbers,MCF-7 cell xenograft; [11],4.14 ± 1.68^gj /mm^2
same,Cortex thickness,MCF-7 cell xenograft; [11],255.43 ± 46.37^a μm/lymph node
same,TNF-positive cells,MCF-7 cell xenograft; [11],6.57 ± 2.51^gj cells/mm^2 of lymph node
same,Apoptotic cell percentages,MCF-7 cell xenograft; [12],27.50 ± 6.62%
same,Tumor cell volume,MCF-7 cell xenograft; [12],51.00 ± 10.37 %/mm^2
same,Cmax,in vivo [4]; 8th administration,770 ± 220 ng/mL
same,Cmax,in vivo [4]; first tamoxifen administration,280 ± 160 ng/mL
same,MRT inf,in vivo [4]; 8th administration,28.5 ± 8.53 h
same,MRT inf,in vivo [4]; first tamoxifen administration,18.1 ± 5.71 h
same,Tmax,in vivo [4]; 8th administration,3.4 ± 0.89 h
same,Tmax,in vivo [4]; first tamoxifen administration,3.6 h
same,half-life,in vivo [4]; 8th administration,1180 ± 350 min
same,half-life,in vivo [4]; first tamoxifen administration,787 ± 346 min
same,AUC(0-inf),in vivo [4]; 8th administration,21500 ± 3040 ng·h/mL
same,AUC(0-inf),in vivo [4]; first tamoxifen administration,4860 ± 2870 ng·h/mL
same,AUC(0-t),in vivo [4]; 8th administration,12400 ± 2660 ng·h/mL
same,AUC(0-t),in vivo [4]; first tamoxifen administration,3230 ± 1790 ng·h/mL
"CNC(=O)c1cc(Oc2ccc(NC(=O)Nc3ccc(Cl)c(C(F)(F)F)c3)cc2)ccn1 [Sorafenib, sorafenib]",Any abnormal signs,"[5]; male, ICR, 28 days",0/7 (0%)
same,Normal appearance,"[5]; male, ICR, 28 days",7/7 (100%)
same,Adrenal G L absolute weight,[5],0.003 ± 0.002
same,BASO (%),[5],0.30 ± 0.20%
same,"Body weight gain, Day 0~Day 14",[5],6.63 ± 1.62
same,"Body weight gain, Day 14~Day 27",[5],2.11 ± 1.51
same,Brain absolute weight,[5],0.471 ± 0.022
same,Epididymis L absolute weight,[5],0.036 ± 0.004^a
same,HCT,[5],41.89 ± 2.13%
same,HGB,[5],18.54 ± 0.88 g/dL
same,Heart absolute weight,[5],0.155 ± 0.011
same,Kidney L absolute weight,[5],0.285 ± 0.042
same,LN L absolute weight,[5],0.002 ± 0.001^a
same,LYM (%),[5],70.74 ± 6.08^c %
same,Liver absolute weight,[5],1.234 ± 0.149
same,Lung absolute weight,[5],0.172 ±0 .010
same,MCH,[5],20.89 ± 0.88 pg
same,MCV,[5],47.13 ± 2.47 fL
same,MONO (%),[5],5.26 ± 1.55%
same,NEU (%),[5],17.36 ± 5.16^c %
same,PLT,[5],804.86 ± 99.24 K/μL
same,Pancreas S absolute weight,[5],0.156 ± 0.022
same,RBC,[5],8.89 ± 0.39 M/μL
same,RET,[5],0.51 ± 0.33 ea/1000
same,Spleen absolute weight,[5],0.063 ± 0.007^e
same,Testis L absolute weight,[5],0.097 ± 0.006^a
same,Thymus absolute weight,[5],0.027 ± 0.004^a
same,WBC,[5],1.81 ± 0.53^a K/μL
same,IC50,HepG2 cells [6],2.8 µM and 1.3 µg/mL
same,IC50,HepG2 cells [7],2.81 µM and 1.31 µg/mL
same,"Deaths, Days of treatment period (Day 0 to 27)",[8],0
same,"Deaths, Termination date (28th day of administration)",[8],0
